pIC50: −log10 of the molar value.
System: 786-0 complex spheroid viability
Test: Anticancer human tumor 786-0 cell line growth inhibition;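 also: spheroids exposed to agents for seven days before readout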
Settings: for pIC50: curve of first compound; for viability, T/C: stronger effect = lower value
In short: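 Multicellular complex spheroids of tumor cells with human endothelial cells (HUVEC) and mesenchymal stem cells; the LSD1 inhibitor iadademstat was combined with standard-of-care or investigational agents. Top concentration at or near clinical Cmax, half-log dilutions; final DMSO ≤0.25%.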

`COc1cc(Nc2ncc3c(n2)-c2ccc(Cl)cc2C(c2c(F)cccc2OC)=NC3)ccc1C(=O)O` + NC1CCC(NC2CC2c2ccccc2)CC1 showed a pIC50 (second compound 0.1 µM) of 6.22, a pIC50 (second compound 0.316 µM) of 6.32 and a pIC50 (second compound 1 µM) of 6.35. For the same molecule, the pIC50 (second compound 3.16 µM) was 6.63, the pIC50 (second compound 10 µM) was 6.93 and the viability, T/C (second compound 0.1 µM, first compound 0.00316 µM) was 114%. The viability, T/C (second compound 0.1 µM, first compound 0.01 µM) was 97.2%, the viability, T/C (second compound 0.1 µM, first compound 0.0316 µM) was 80.7% and the viability, T/C (second compound 0.1 µM, first compound 0.1 µM) was 68.8%. It also gave a viability, T/C (second compound 0.1 µM, first compound 0.316 µM) of 57.1%, a viability, T/C (second compound 0.1 µM, first compound 1 µM) of 44.5% and a viability, T/C (second compound 0.316 µM, first compound 0.00316 µM) of 116%. For the same molecule, the viability, T/C (second compound 0.316 µM, first compound 0.01 µM) was 93.2%, the viability, T/C (second compound 0.316 µM, first compound 0.0316 µM) was 73.2% and the viability, T/C (second compound 0.316 µM, first compound 0.1 µM) was 65.9%. The viability, T/C (second compound 0.316 µM, first compound 0.316 µM) was 54.1%, the viability, T/C (second compound 0.316 µM, first compound 1 µM) was 43.7% and the viability, T/C (second compound 1 µM, first compound 0.00316 µM) was 108%. For the same molecule, the viability, T/C (second compound 1 µM, first compound 0.01 µM) was 91%, the viability, T/C (second compound 1 µM, first compound 0.0316 µM) was 71.8% and the viability, T/C (second compound 1 µM, first compound 0.1 µM) was 66.9%. It also gave a viability, T/C (second compound 1 µM, first compound 0.316 µM) of 53.9%, a viability, T/C (second compound 1 µM, first compound 1 µM) of 42.5% and a viability, T/C (second compound 3.16 µM, first compound 0.00316 µM) of 102%. The viability, T/C (second compound 3.16 µM, first compound 0.01 µM) was 82%, the viability, T/C (second compound 3.16 µM, first compound 0.0316 µM) was 60.3% and the viability, T/C (second compound 3.16 µM, first compound 0.1 µM) was 59.1%. For the same molecule, the viability, T/C (second compound 3.16 µM, first compound 0.316 µM) was 51%, the viability, T/C (second compound 3.16 µM, first compound 1 µM) was 40.6% and the viability, T/C (second compound 10 µM, first compound 0.00316 µM) was 80.2%. The viability, T/C (second compound 10 µM, first compound 0.01 µM) was 64.9%, the viability, T/C (second compound 10 µM, first compound 0.0316 µM) was 53.2% and the viability, T/C (second compound 10 µM, first compound 0.1 µM) was 56.4%. The viability, T/C (second compound 10 µM, first compound 0.316 µM) was 46.4% and the viability, T/C (second compound 10 µM, first compound 1 µM) was 39.7%.

From PubChem BioAssay AID1918944 (Molecular Pharmacology Branch, DTP, NCI, 2023)
